In brackets after ≈: the same amount, converted by molar mass.
Tests used:
Format in all cases: functional
[1] = system: Helicobacter pylori; test: Antibacterial activity against Helicobacter pylori NCTC-11637 after 24 hrs; details: NCTC-11637, 24 h
[2] = system: Helicobacter pylori; test: Antibacterial activity against Helicobacter pylori NCTC-11637 after 5 days by serial dilution method
[3] = system: Helicobacter pylori; test: Antibacterial activity against Helicobacter pylori NCTC-11637 assessed as zone of inhibition at 0.5 ug/disk; details: read-out: IZ
[4] = system: Helicobacter pylori; test: Antibacterial activity against Helicobacter pylori NCTC-11637 assessed as zone of inhibition at 500 ug/disk; details: read-out: IZ
[5] = system: Helicobacter pylori; test: Antibacterial activity against Helicobacter pylori assessed NCTC-11637 as zone of inhibition at 2 ug/disk; details: read-out: IZ
[6] = system: Helicobacter pylori; test: Antibacterial activity against Helicobacter pylori NCTC-11637 assessed as zone of inhibition at 10 ug/disk; details: read-out: IZ
[7] = system: Helicobacter pylori; test: Antibacterial activity against Helicobacter pylori assessed NCTC-11637 as zone of inhibition at 0.02 ug/disk; details: read-out: IZ
[8] = system: Helicobacter pylori; test: Antibacterial activity against Helicobacter pylori assessed NCTC-11637 as zone of inhibition at 0.01 ug/disk; details: read-out: IZ
[9] = Helicobacter pylori, 120 h, read-out: MBC

Row | Structure (SMILES) | MIC [1] [µg/mL] | MBC [2, 9] [µg/mL] | other results
1 | COc1cc(OC)c2c(c1)C(CCCCCCCCCC(CCC(C)=O)OC(C)=O)OC2=O (stereo not drawn) | 1.25 (≈ 2.7 µM) | 2.5 (≈ 5.4 µM) | zone of inhibition at 0.5 µg/disc [3]: 15 mm
2 | COc1cc(OC)c2c(c1)[C@@H](CCCCC[C@H]1CCC[C@]3(CC[C@@H](C)O3)O1)OC2=O | 0.5 (≈ 1.19 µM) | 1 (≈ 2.39 µM) | –
3 | COc1cc(OC)c2ccn(CCCCCCCCCC(CCC(C)=O)OC(C)=O)c2c1 (stereo not drawn) | > 100 | > 100 | –
4 | COc1cc(OC)c2ccn(CCCCCCCCCCCCC(C)O)c2c1 (stereo not drawn) | > 100 | > 100 | –
5 | COc1cc(OC)c2ccn(CCCCCCCCCCCCC(C)=O)c2c1 | 50 (≈ 129 µM) | 50 (≈ 129 µM) | –
6 | COc1cc(OC)c2ccn(CCCCCCCCCC(=O)CCC(C)=O)c2c1 | 10 (≈ 24.9 µM) | 20 (≈ 49.8 µM) | –
7 | COc1cc(OC)c2ccn(CCCC3CCCC4(CCCCO4)O3)c2c1 (stereo not drawn) | 20 (≈ 53.5 µM) | 40 (≈ 107 µM) | –
8 | COc1cc(OC)c2c(c1)C(CCCCCCCCCCCCC(C)O)OC2=O (stereo not drawn) | 12.5 (≈ 30.7 µM) | 50 (≈ 123 µM) | zone of inhibition at 500 µg/disc [4]: 15 mm
9 | COc1cc(OC)c2c(c1)[C@H](CCCCCC[C@H]1CC[C@]3(CC[C@H](C)O3)O1)OC2=O | 20 (≈ 47.8 µM) | 100 (≈ 239 µM) | –
10 | COc1cc(OC)c2c(c1)[C@@H](CCCCCC[C@H]1CC[C@@]3(CC[C@H](C)O3)O1)OC2=O | 0.3 (≈ 0.717 µM) | 0.3 (≈ 0.717 µM) | –
11 | COc1cc(OC)c2c(c1)[C@H](CCCCCC[C@H]1CC[C@@]3(CC[C@H](C)O3)O1)OC2=O | 20 (≈ 47.8 µM) | 100 (≈ 239 µM) | –
12 | COc1cc(OC)c2c(c1)[C@@H](CCCCCC[C@H]1CC[C@]3(CC[C@H](C)O3)O1)OC2=O | 0.3 (≈ 0.717 µM) | 0.3 (≈ 0.717 µM) | –
13 | COc1cc(OC)c2c(c1)C(CCCCCCCCCC(=O)CCC(C)=O)OC2=O (stereo not drawn) | 2.5 (≈ 5.97 µM) | 5 (≈ 11.9 µM) | zone of inhibition at 2 µg/disc [5]: 15 mm
14 | COc1cc(OC)c2c(c1)C(CCCCCCCCCCCCC(C)=O)OC2=O (stereo not drawn) | 10 (≈ 24.7 µM) | 10 (≈ 24.7 µM) | zone of inhibition at 10 µg/disc [6]: 15 mm
15 | COc1cc(OC)c2ccn(CCCCCCCCC(C)=O)c2c1 | 5 (≈ 15.1 µM) | 10 (≈ 30.2 µM) | –
16 | COc1cc(OC)c2c(c1)[C@@H](CCCCC[C@H]1CCC[C@]3(CC[C@H](C)O3)O1)OC2=O | 0.125 (≈ 0.299 µM) | 0.125 (≈ 0.299 µM) | –
17 | COc1cc(OC)c2c(c1)C(CCCCCCC1CCC3(CCC(C)O3)O1)OC2=O (stereo in doubt) | 0.02 (≈ 0.0478 µM) | – | MBC [2]: 0.2 µg/mL (≈ 0.478 µM)
18 | COc1cc(OC)c2c(c1)C(CCCCCCC1CCC3(CCC(C)O3)O1)OC2=O (stereo in doubt; 5) | – | – | zone of inhibition at 0.02 µg/disc [7]: 15 mm; MBC [2]: 0.02 µg/mL (≈ 0.0478 µM)
19 | COc1cc(O)cc2c1C(=O)OC2CCCCCC1CCCC2(CCC(C)O2)O1 (stereo not drawn) [SPIROLAXINE] | 0.2 (≈ 0.494 µM) | > 2 | zone of inhibition at 0.01 µg/disc [8]: 15 mm

Reference: ChEMBL document CHEMBL1150341, “Anti-Helicobacter pylori activity of derivatives of the phthalide-containing antibacterial agents spirolaxine methyl ether, CJ-12,954, CJ-13,013, CJ-13,102, CJ-13,104, CJ-13,108 and CJ-13,015” (2008)
